The target of assay [1] is T1, KEAP1 C151 (Homo sapiens, UniProt Q14145).
T1 construct: treating 500 μg of cell lysate generated from MDA-MB-468 breast cancer cells with DMSO or compound; endogenous in cells; host or cells: MDA-MB-468 breast cancer cell lysate
Briefly: Nrf2 TMT measurement: in vitro TE50 for KEAP1 C151 (IA-DTB competition, targeted TMT mass spectrometry) in MDA-MB-468 cell lysate. The format is binding. The following applies: in vitro target engagement of KEAP1 C151, targeted TMT, read-out: KEAP1_C151 TE50. The method in brief: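 MDA-MB-468 lysate (500 μg) treated with compound for 1 h at room temperature, then 200 μM IA-DTB for 1 h. Labeled peptides streptavidin-enriched after trypsin digest, TMT-labeled and quantified by targeted MS3 on the KEAP1 C151 peptide. IC50 from dose-response curve fitting.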

The subject of assay [2] is Nrf2. Briefly: Nrf2 antagonism assay: ARE luciferase reporter in KYSE-70 cells. The assay is classed as cell-based. The following applies: positive Imax corresponds to Nrf2 antagonism; for Emax: Homo sapiens, KYSE-70, KYSE-70 cells, read-out: KYSE70 Cellular ARE Luciferase Imax (%); for KYSE70 Cellular ARE Luciferase Imax (%): KYSE-70 cells. The method in brief: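 KYSE-70 esophageal squamous carcinoma cells carrying Nrf2 W24C (constitutively Nrf2-high) with an ARE-driven luciferase reporter. Loss of luciferase signal reflects Nrf2 antagonism via KEAP1 C151 engagement. IC50 and Imax come from dose-response curves; positive Imax means antagonism.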
In general terms: A reporter such as luciferase makes a cellular process visible.

T1 sequence (Q14145 whole entry): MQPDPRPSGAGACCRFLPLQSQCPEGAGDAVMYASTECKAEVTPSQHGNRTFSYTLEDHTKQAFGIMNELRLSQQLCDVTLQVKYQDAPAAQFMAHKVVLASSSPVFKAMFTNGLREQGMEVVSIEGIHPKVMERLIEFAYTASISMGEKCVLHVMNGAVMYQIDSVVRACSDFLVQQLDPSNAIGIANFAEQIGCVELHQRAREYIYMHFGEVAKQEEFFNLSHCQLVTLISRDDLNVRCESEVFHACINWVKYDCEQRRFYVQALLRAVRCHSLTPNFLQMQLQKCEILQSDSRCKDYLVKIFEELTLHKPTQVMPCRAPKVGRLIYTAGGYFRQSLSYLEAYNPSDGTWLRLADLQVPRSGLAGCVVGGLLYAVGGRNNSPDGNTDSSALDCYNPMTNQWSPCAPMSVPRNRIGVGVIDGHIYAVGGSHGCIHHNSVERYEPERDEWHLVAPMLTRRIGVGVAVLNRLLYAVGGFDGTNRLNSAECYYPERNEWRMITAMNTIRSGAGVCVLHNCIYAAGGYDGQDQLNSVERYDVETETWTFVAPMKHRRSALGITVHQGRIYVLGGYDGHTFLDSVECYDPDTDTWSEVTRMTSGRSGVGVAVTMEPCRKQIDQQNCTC

Consider `C=CC(=O)N1CCOC[C@H]1c1cc(Cl)cc(N2CCNC(=O)C2)c1` (single isomer, unassigned) [Compound 228], for which the IC50 in assay [1] was 130 nM. Moreover, in assay [2], the Emax was determined as 79%.
For `C=CC(=O)N1CCOC[C@H]1c1cc(Cl)cc(-c2cc(N)ncn2)c1` (single isomer, unassigned) [Compound 80], in that order: 290 nM and 94%.
For `C=CC(=O)N1CCOC[C@H]1c1cc(Cl)cc(-c2ccc(N)nn2)c1` (single isomer, unassigned) [Compound 128] the same measures were 120 nM and 70%.
For `C=CC(=O)N1CCOCC1c1cc(Cl)cc(-c2cc(=O)[nH]cn2)c1` (single isomer, unassigned) [Compound 94, 6-(3-(4-acryloylmorpholin-3-yl)-5-chlorophenyl)pyrimidin-4(3H)-one] the same measures were 16 nM and 87%.
For `C=CC(=O)N1CC2(CC2)OCC1(C)c1cc(Cl)cc(-c2ncc(F)cn2)c1` (single isomer, unassigned) [Compound 165, 1-(6-(3-chloro-5-(5-fluoropyrimidin-2-yl)phenyl)-6-methyl-4-oxa-7-azaspiro[2.5]octan-7-yl)prop-2-en-1-one], the IC50 in assay [1] stood at 330 nM. The Emax in assay [2] amounted to 53%.
Regarding `C=CC(=O)N1CCOC[C@H]1c1cc(Cl)cc(-c2cc(N)cnn2)c1` (single isomer, unassigned) [Compound 132], in assay [1], the IC50 is < 6.4 nM. Moreover, the Emax in assay [2] turned out to be 78%.
On to `C=CC(=O)N1CCOC[C@H]1c1cc(Cl)cc(-c2cc(C)ccn2)c1` (single isomer, unassigned) [Compound 104], for which, in assay [1], the IC50 amounted to 45 nM. Besides, in assay [2], the Emax came out at 91%.
For `C=CC(=O)N1CCOC[C@H]1c1cc(Cl)cc(-c2ccncc2)c1` (single isomer, unassigned) [Compound 126], the IC50 in assay [1] amounted to 50 nM. In addition, the Emax in assay [2] was found to be 72%.
For `C=CC(=O)N1CCC(F)(F)CC1c1cc(Cl)cc(-c2ncc(N)cn2)c1` (single isomer, unassigned) [Compound 247, 1-(2-(3-(5-aminopyrimidin-2-yl)-5-chlorophenyl)-4,4-difluoropiperidin-1-yl)prop-2-en-1-one], in that order: 16 nM and 91%.
For `C=CC(=O)N1CCOC[C@H]1c1cc(Cl)cc(-c2ccnc3[nH]ccc23)c1` (single isomer, unassigned) [Compound 97], in that order: 23 nM and 86%.
For `C=CC(=O)N1[C@H](c2cc(Cl)cc(-c3ccnc(N)n3)c2)COC[C@H]1C(F)F` (single isomer, unassigned) [Compound 290] the same measures were 15 nM and 93%.
As to `C=CC(=O)N1CCS(=O)(=O)CC1c1cc(Cl)cc(-c2ccnc(C)n2)c1` (single isomer, unassigned) [Compound 51, 1-(3-(3-chloro-5-(2-methylpyrimidin-4-yl)phenyl)-1,1-dioxidothiomorpholino)prop-2-en-1-one], the IC50 in assay [1] is 237 nM. The “KYSE70 Cellular ARE Luciferase Imax (%)” value in assay [2] worked out at 89%.
On to `C=CC(=O)N1CC(C)(C)OC[C@H]1c1cc(Cl)cc(-c2ccnc(C)n2)c1` (single isomer, unassigned) [Compound 48], for which the IC50 in assay [1] was 66 nM. For the same molecule, the Emax in assay [2] stood at 85%.
In the case of `C=CC(=O)N1CCOCC1c1cc(Cl)cc(-c2ccnc(OC)n2)c1` (single isomer, unassigned) [Compound 49, 1-(3-(3-chloro-5-(2-methoxypyrimidin-4-yl)phenyl)morpholino)prop-2-en-1-one], in assay [1], the IC50 was 42 nM. Further, in assay [2], the Emax amounted to 91%.
For `C=CC(=O)N1CCOC[C@H]1c1cc(Cl)cc(-c2ncnc3[nH]cnc23)c1` (single isomer, unassigned) [Compound 58] the same measures were 30.5 nM and 95%.
For `C=CC(=O)N1C[C@H](C)OC[C@H]1c1cc(Cl)cc(-c2ccc(F)c(C(N)=O)c2)c1` (single isomer, unassigned) [Compound 182] the same measures were 16 nM and 89%.
For `C=CC(=O)N1CC2(CCCC2)OCC1(C)c1cc(Cl)cc(-c2ccnc(N)n2)c1` (single isomer, unassigned) [Compound 163, 1-(8-(3-(2-aminopyrimidin-4-yl)-5-chlorophenyl)-8-methyl-6-oxa-9-azaspiro[4.5]decan-9-yl)prop-2-en-1-one] the same measures were 610 nM and 72%.
As to `C=CC(=O)N1CC2(CC2)OCC1c1cc(Cl)nc(-c2cc(N)ncn2)c1` (single isomer, unassigned) [Compound 175, 1-(6-(2-(6-aminopyrimidin-4-yl)-6-chloropyridin-4-yl)-4-oxa-7-azaspiro[2.5]octan-7-yl)prop-2-en-1-one], the IC50 in assay [1] is 32 nM. Moreover, in assay [2], the “KYSE70 Cellular ARE Luciferase Imax (%)” value is given as 92%.
Turning to `C=CC(=O)N1CCOCC1c1cc(Cl)cc(-c2cccn(C)c2=O)c1` (single isomer, unassigned) [Compound 36, 3-(3-(4-acryloylmorpholin-3-yl)-5-chlorophenyl)-1-methylpyridin-2(1H)-one], the IC50 in assay [1] stood at 110 nM. Besides, the Emax in assay [2] amounted to 69%.
For `C=CC(=O)N1CCOC[C@H]1c1cc(Cl)cc(-c2ccn(C)c(=O)c2)c1` (single isomer, unassigned) [Compound 13], in that order: 50 nM and 72%.
For `C=CC(=O)N1CCOCC1c1cc(Cl)cc(-c2cc(C)ncn2)c1` (single isomer, unassigned) [Compound 38, 1-(3-(3-chloro-5-(6-methylpyrimidin-4-yl)phenyl)morpholino)prop-2-en-1-one], in that order: 27 nM and 89%.
For `C=CC(=O)N1CCOCC1c1cc(Cl)cc(-c2ccccc2)c1` (racemic) [Compound 1, 1-(3-(5-chloro-[1,1′-biphenyl]-3-yl)morpholino)prop-2-en-1-one], in that order: 410 nM and 56%.
On to `C=CC(=O)N1CCOC[C@H]1c1cc(Cl)cc(-c2ccnc(C)c2)c1` (single isomer, unassigned) [Compound 90], for which, in assay [1], the IC50 amounted to 120 nM. The Emax in assay [2] turned out to be 81%.
For `C=CC(=O)N1CCOC[C@H]1c1cc(Cl)cc(-c2cc(N)nc(F)n2)c1` (single isomer, unassigned) [Compound 283], in that order: 18 nM and 94%.
For `C=CC(=O)N1CCOC[C@H]1c1cc(Cl)cc(-c2nccc(OC)n2)c1` (single isomer, unassigned) [Compound 88] the same measures were 14 nM and 85%.
For `C=CC(=O)N1CCOC[C@H]1c1cc(Cl)cc(C2CNC(=S)CO2)c1` (single isomer, unassigned) [Compound 241], the IC50 in assay [1] was 170 nM. Besides, the “KYSE70 Cellular ARE Luciferase Imax (%)” value in assay [2] worked out at 87%.
As for `C=CC(=O)N1CCOC[C@H]1c1cc(Cl)cc(-c2nc(C)nc(N)n2)c1` (single isomer, unassigned) [Compound 178], the IC50 in assay [1] amounted to 30 nM. Moreover, in assay [2], the Emax came to 93%.
With `C=CC(=O)N1CCOC[C@H]1c1cc(Cl)cc(C2CNC(=O)CO2)c1` (single isomer, unassigned) [Compound 231], the IC50 in assay [1] was determined as 320 nM. The “KYSE70 Cellular ARE Luciferase Imax (%)” value in assay [2] came to 55%.
For `C=CC(=O)N1CCOCC1c1cc(Cl)cc(-c2ccn3ccnc3n2)c1` (single isomer, unassigned) [Compound 63, 1-(3-(3-chloro-5-(imidazo[1,2-a]pyrimidin-7-yl)phenyl)morpholino)prop-2-en-1-one], the IC50 in assay [1] was 3.3 nM. In assay [2], the Emax amounted to 63%.
For `C=CC(=O)N1CCOC[C@H]1c1cc(Cl)cc(-c2cc(C(N)=O)ccn2)c1` (single isomer, unassigned) [Compound 298], in assay [1], the IC50 was 32 nM. In addition, the Emax in assay [2] was determined as 94%.
For `C=CC(=O)N1CC2(CC2)OCC1c1cc(Cl)nc(-c2ccn3ccnc3c2)c1` (single isomer, unassigned) [Compound 190, 1-(6-(2-chloro-6-(imidazo[1,2-a]pyridin-7-yl)pyridin-4-yl)-4-oxa-7-azaspiro[2,5]octan-7-yl)prop-2-en-1-one], in that order: 6.6 nM and 75%.
For `C=CC(=O)N1[C@H](CO)COC[C@H]1c1cc(Cl)nc(-c2ccn3ccnc3c2)c1` (single isomer, unassigned) [Compound 157], in that order: 12 nM and 81%.
For `C=CC(=O)N1CCOC[C@H]1c1cc(Cl)cc(-c2cnc(N)c(N)n2)c1` (single isomer, unassigned) [Compound 258], in that order: 16 nM and 93%.
For `C=CC(=O)N1CCOC[C@H]1c1cc(Cl)cc(-c2cnc(N)o2)c1` (single isomer, unassigned) [Compound 234], the IC50 in assay [1] was 220 nM. The Emax in assay [2] was determined as 89%.
For `C=CC(=O)N1CCOC[C@H]1c1cc(Cl)cc(-c2nc(N)nc(N)n2)c1` (single isomer, unassigned) [Compound 191], in that order: 12 nM and 93%.
Turning to `C=CC(=O)N1CCS(=O)(=O)CC1c1cc(Cl)cc(-c2ncnc(N)n2)c1` (single isomer, unassigned) [Compound 205, 1-(3-(3-(4-amino-1,3,5-triazin-2-yl)-5-chlorophenyl)-1,1-dioxidothiomorpholino)prop-2-en-1-one], the IC50 in assay [1] is 34 nM. In addition, the “KYSE70 Cellular ARE Luciferase Imax (%)” value in assay [2] was determined as 92%.

The values above are taken from US20260207621A1 (Vividion Therapeutics, Inc., priority 2022, published 2026).
